# From EPA's ToxRefDB 2
# What was measured:
# [1] = tested on: rat; settings: Combined chronic toxicity/carcinogenicity, fischer, Oral, Feed, dose end: 24 month
# [2] = tested on: rabbit; settings: Prenatal developmental toxicity study, chinchilla, Oral, Gavage/Intubation, dose end: 18 GD
# [3] = tested on: mouse; settings: Carcinogenicity, cd1, Oral, Feed, dose end: 87 week, group: systemic
# [4] = tested on: rat; settings: Multigenerational reproductive toxicity study, sprague dawley, Oral, Feed, dose end: 2 generation
# [5] = tested on: mouse; settings: Combined chronic toxicity/carcinogenicity, cd1, Oral, Feed, dose end: 78 week, group: systemic
# [6] = tested on: dog; settings: Chronic toxicity, beagle, Oral, Feed, dose end: 52 week, group: systemic
# [7] = tested on: rat; settings: Combined chronic toxicity/carcinogenicity; sprague dawley; Oral; Feed; dose end: 24 month; group: systemic; systemic / in life observation / clinical signs / urine staining - perineum
# [8] = tested on: rat; settings: Subchronic oral toxicity in rodents, fischer, Feed, dose end: 13 week, group: systemic
# [9] = tested on: rat; settings: Carcinogenicity; fischer; Oral; Feed; dose end: 104 week; group: systemic; systemic / in life observation / body weight / body weight + systemic / pathology microscopic / kidney / cytomegaly + systemic / pathology …
# [10] = tested on: mouse; settings: Subchronic oral toxicity in rodents, b6c3f1, Feed, dose end: 13 week, group: systemic
# [11] = tested on: mouse; settings: Carcinogenicity; b6c3f1; Oral; Feed; dose end: 104 week; group: systemic; systemic / in life observation / body weight / body weight
# [12] = tested on: rat; settings: Prenatal developmental toxicity study, sprague dawley, Oral, Gavage/Intubation, dose end: 15 GD
# [13] = tested on: rat; settings: Combined chronic toxicity/carcinogenicity, sprague dawley, Oral, Feed, dose end: 24 month, group: systemic
# [14] = tested on: mouse; settings: Carcinogenicity, cd1, Oral, Feed, dose end: 2 year, group: systemic
# [15] = tested on: rat; settings: Combined chronic toxicity/carcinogenicity; wistar; Oral; Feed; dose end: 2 year; group: systemic; systemic / in life observation / body weight / body weight gain + systemic / in life observation / food consumption / food consumption + …
# [16] = tested on: mouse; settings: Combined chronic toxicity/carcinogenicity, other, Oral, Feed, dose end: 80 week, group: systemic
# [17] = tested on: dog; settings: Chronic toxicity; beagle; Oral; Capsule; dose end: 52 week; group: systemic; systemic / clinical chemistry / alanine aminotransferase (alt/sgpt) / alanine aminotransferase (alt/sgpt) + systemic / in life observation…
# [18] = tested on: mouse; settings: Carcinogenicity, b6c3f1, Oral, Gavage/Intubation, dose end: 2 year, group: systemic
# [19] = tested on: mouse; settings: Subchronic oral toxicity in rodents, b6c3f1, Gavage/Intubation, dose end: 13 week, group: systemic
# [20] = tested on: rat; settings: Subchronic oral toxicity in rodents, fischer, Gavage/Intubation, dose end: 13 week, group: systemic, systemic / in life observation / body weight / body weight
# [21] = group: cholinesterase, cholinesterase / cholinesterase / cholinesterase / brain cholinesterase (che) + cholinesterase / cholinesterase / cholinesterase / …
# [22] = group: systemic, systemic / hematology / mean corpuscular (cell) volume (mcv) / mean corpuscular (cell) volume (mcv) + systemic / in life observation / body …
# [23] = group: developmental, developmental / developmental malformation / bone / absent + developmental / developmental malformation / bone / fused + developmental / …
# [24] = group: maternal, systemic / in life observation / body weight / body weight gain + systemic / in life observation / clinical signs / ataxia + systemic / in …
# [25] = systemic / organ weight / brain / absolute
# [26] = systemic / organ weight / brain / absolute + systemic / in life observation / body weight / body weight + systemic / in life observation / …
# [27] = group: cholinesterase, cholinesterase / cholinesterase / cholinesterase / plasma cholinesterase (che)
# [28] = group: offspring, developmental / offspring survival late / lactation index / lactation index
# [29] = group: offspring, developmental / offspring survival late / lactation index / lactation index + systemic / in life observation / body weight / offspring (pup…
# [30] = group: parental, systemic / in life observation / body weight / body weight
# [31] = group: parental, systemic / organ weight / ovary / relative to body weight
# [32] = systemic / in life observation / body weight / body weight gain + systemic / in life observation / body weight / body weight + systemic / …
# [33] = systemic / clinical chemistry / alanine aminotransferase (alt/sgpt) / alanine aminotransferase (alt/sgpt) + systemic / clinical chemistry / …
# [34] = systemic / organ weight / liver / absolute
# [35] = systemic / in life observation / body weight / body weight
# [36] = systemic / in life observation / food consumption / food consumption
# [37] = group: developmental, developmental / developmental malformation / bone / incomplete ossification + developmental / developmental malformation / interparietal / …
# [38] = group: maternal, systemic / in life observation / body weight / body weight + systemic / in life observation / food consumption / food consumption
# [39] = group: maternal, systemic / in life observation / body weight / body weight + systemic / in life observation / food consumption / food consumption + systemic…
# [40] = systemic / pathology microscopic / mammary gland / adenocarcinoma
# [41] = systemic / pathology microscopic / heart / degeneration
# [42] = systemic / pathology microscopic / heart / degeneration + systemic / pathology microscopic / liver / hemosiderin laden macrophages
# [43] = systemic / in life observation / body weight / body weight + systemic / organ weight / kidney / relative to body weight + systemic / organ …
# [44] = systemic / organ weight / liver / relative to body weight
# [45] = systemic / pathology microscopic / liver / vacuolization + systemic / pathology microscopic / thyroid gland / hyperplasia
# [46] = systemic / pathology microscopic / liver / vacuolization + systemic / pathology microscopic / thyroid gland / hyperplasia + systemic / …
# [47] = systemic / pathology microscopic / stomach / inflammation
# [48] = systemic / pathology microscopic / stomach / inflammation + systemic / in life observation / body weight / body weight + systemic / …
structure (smiles),measurement,setting,value
CCOP(=O)(NC(C)C)Oc1ccc(SC)c(C)c1 (stereo not given) [Fenamiphos],LEL,[1]; [21],0.098 mg/kg/day
same,LOAEL,[1]; [21],0.098 mg/kg/day
same,NEL,[1]; [21],< 0.098 mg/kg/day
same,NOAEL,[1]; [21],< 0.098 mg/kg/day
same,LEL,[1]; [22],2.45 mg/kg/day
same,LOAEL,[1]; [22],> 2.45 mg/kg/day
same,NEL,[1]; [22],0.464 mg/kg/day
same,NOAEL,[1]; [22],≥ 2.45 mg/kg/day
same,LEL,[2]; [23],2.5 mg/kg/day
same,LOAEL,[2]; [23],2.5 mg/kg/day
same,NEL,[2]; [23],0.5 mg/kg/day
same,NOAEL,[2]; [23],0.5 mg/kg/day
same,LEL,[2]; [24],2.5 mg/kg/day
same,LOAEL,[2]; [24],2.5 mg/kg/day
same,NEL,[2]; [24],0.5 mg/kg/day
same,NOAEL,[2]; [24],0.5 mg/kg/day
same,LEL,[3]; [25],0.3 mg/kg/day
same,NEL,[3]; [25],< 0.3 mg/kg/day
same,LOAEL,[3]; [26],> 7.5 mg/kg/day
same,NOAEL,[3]; [26],≥ 7.5 mg/kg/day
same,LEL,[4]; [27],0.19 mg/kg/day
same,LOAEL,[4]; [27],0.19 mg/kg/day
same,NEL,[4]; [27],< 0.19 mg/kg/day
same,NOAEL,[4]; [27],< 0.19 mg/kg/day
same,LEL,[4]; [28],0.65 mg/kg/day
same,LOAEL,[4]; [28],0.65 mg/kg/day
same,NEL,[4]; [29],0.17 mg/kg/day
same,NOAEL,[4]; [29],0.17 mg/kg/day
same,LOAEL,[4]; [30],> 2.94 mg/kg/day
same,NOAEL,[4]; [30],≥ 2.94 mg/kg/day
same,LEL,[4]; [31],0.2 mg/kg/day
same,NEL,[4]; [31],< 0.2 mg/kg/day
CC(C)C1(C)N=C(c2nc3ccccc3cc2C(=O)O)NC1=O (stereo not given) [Imazaquin],LOAEL,[5]; systemic / in life observation / body weight / body weight gain,600 mg/kg/day
same,LEL,[5]; [32],600 mg/kg/day
same,NEL,[5]; [32],150 mg/kg/day
same,NOAEL,[5]; [32],150 mg/kg/day
same,LOAEL,[6]; [33],125 mg/kg/day
same,NOAEL,[6]; [33],25 mg/kg/day
same,LEL,[6]; [34],5 mg/kg/day
same,NEL,[6]; [34],< 5 mg/kg/day
same,LEL,[7],500 mg/kg/day
same,LOAEL,[7],> 500 mg/kg/day
same,NEL,[7],250 mg/kg/day
same,NOAEL,[7],≥ 500 mg/kg/day
CN(C)C(=O)Nc1ccc(Cl)cc1 [Monuron],LOAEL,[8]; [35],75 mg/kg/day
same,NOAEL,[8]; systemic / in life observation / body weight / body weight + systemic / in life observation / food consumption / food consumption + systemic…,37.5 mg/kg/day
same,LEL,[8]; [36],37.5 mg/kg/day
same,NEL,[8]; [36],< 37.5 mg/kg/day
same,LEL,[9],37.5 mg/kg/day
same,LOAEL,[9],75 mg/kg/day
same,NEL,[9],< 37.5 mg/kg/day
same,NOAEL,[9],37.5 mg/kg/day
same,LEL,[10]; [35],450 mg/kg/day
same,LOAEL,[10]; [35],1800 mg/kg/day
same,NEL,[10]; [35],< 450 mg/kg/day
same,NOAEL,[10]; systemic / in life observation / body weight / body weight + systemic / in life observation / mortality / mortality + systemic / pathology …,900 mg/kg/day
same,LEL,[11],750 mg/kg/day
same,LOAEL,[11],750 mg/kg/day
same,NEL,[11],< 750 mg/kg/day
same,NOAEL,[11],< 750 mg/kg/day
CC(C)Nc1nc(Cl)nc(NC(C)C)n1 [Propazine],LOAEL,[12]; [37],100 mg/kg/day
same,NEL,[12]; [37],10 mg/kg/day
same,NOAEL,[12]; [37],10 mg/kg/day
same,LEL,"[12]; group: developmental, developmental / developmental malformation / interparietal / incomplete ossification",100 mg/kg/day
same,LEL,[12]; [38],100 mg/kg/day
same,LOAEL,[12]; [38],100 mg/kg/day
same,NEL,[12]; [39],10 mg/kg/day
same,NOAEL,[12]; [39],10 mg/kg/day
same,LOAEL,[13]; [35],51 mg/kg/day
same,NOAEL,[13]; systemic / in life observation / body weight / body weight + systemic / in life observation / body weight / body weight gain,5.2 mg/kg/day
same,LEL,[13]; [40],0.2 mg/kg/day
same,NEL,[13]; [40],< 0.2 mg/kg/day
same,NEL,[14]; [41],150 mg/kg/day
same,NOAEL,[14]; [41],150 mg/kg/day
same,LEL,[14]; [42],450 mg/kg/day
same,LOAEL,[14]; [42],450 mg/kg/day
C/C=C/C=C/C(=O)O [Sorbic acid],LEL,[15],5000 mg/kg/day
same,LOAEL,[15],> 5000 mg/kg/day
same,NEL,[15],750 mg/kg/day
same,NOAEL,[15],≥ 5000 mg/kg/day
same,LOAEL,[16]; [43],> 15000 mg/kg/day
same,NOAEL,[16]; [43],≥ 15000 mg/kg/day
same,LEL,[16]; [44],1500 mg/kg/day
same,NEL,[16]; [44],< 1500 mg/kg/day
CNC(=O)N(C)c1nnc(C(C)(C)C)s1 [Tebuthiuron],LEL,[17],50 mg/kg/day
same,LOAEL,[17],50 mg/kg/day
same,NEL,[17],25 mg/kg/day
same,NOAEL,[17],25 mg/kg/day
CCCCC(CC)COP(=O)(OCC(CC)CCCC)OCC(CC)CCCC (stereo not given) [Tris(2-ethylhexyl) phosphate],LEL,[18]; [45],500 mg/kg/day
same,NEL,[18]; [45],< 500 mg/kg/day
same,LOAEL,[18]; [46],> 1000 mg/kg/day
same,NOAEL,[18]; [46],≥ 1000 mg/kg/day
same,LEL,[19]; [47],500 mg/kg/day
same,NEL,[19]; [47],< 500 mg/kg/day
same,LOAEL,[19]; [48],8000 mg/kg/day
same,NOAEL,[19]; [48],4000 mg/kg/day
same,LEL,[20],2000 mg/kg/day
same,LOAEL,[20],2000 mg/kg/day
same,NEL,[20],1000 mg/kg/day
same,NOAEL,[20],1000 mg/kg/day
